Measured values published in the supplement of paper PMC10307832.

Columns and labels:
Experiment in all cases: relative viability (nuclei count vs DMSO), 5 days (fraction); higher = more cells survive
Palbociclib + Olaparib = compound: CC(=O)c1c(C)c2cnc(Nc3ccc(N4CCNCC4)cn3)nc2n(C2CCCC2)c1=O [Palbociclib] + O=C(c1cc(Cc2n[nH]c(=O)c3ccccc23)ccc1F)N1CCN(C(=O)C2CC2)CC1 [Olaparib] (partner 8 µM)
Method in brief: (§1)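 Nuclei were stained with Hoechst during a one-step fixation (final 0.05% Triton X-100, 1% formaldehyde, 1 ug/ml Hoechst) carried out 5 days after dosing, then counted on 4× images. The cells, lung cancer lines in 1536-well plates, had been dosed by pin tool the day after seeding with one drug alone or a fixed anchor-drug dose plus five library-drug doses (not always all listed) in √10 steps. Relative viability is the nuclei count in treated wells divided by that in vehicle wells, and each value is the median of duplicate plates.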

Palbociclib + Vorinostat = compound: CC(=O)c1c(C)c2cnc(Nc3ccc(N4CCNCC4)cn3)nc2n(C2CCCC2)c1=O [Palbociclib] + O=C(CCCCCCC(=O)Nc1ccccc1)NO [Vorinostat] (partner 1 µM)
Method in brief: as §1

Palbociclib + Tozasertib = compound: CC(=O)c1c(C)c2cnc(Nc3ccc(N4CCNCC4)cn3)nc2n(C2CCCC2)c1=O [Palbociclib] + Cc1cc(Nc2cc(N3CCN(C)CC3)nc(Sc3ccc(NC(=O)C4CC4)cc3)n2)n[nH]1 [Tozasertib] (partner 0.1 µM)
Method in brief: as §1

Palbociclib + Trametinib = compound: CC(=O)c1c(C)c2cnc(Nc3ccc(N4CCNCC4)cn3)nc2n(C2CCCC2)c1=O [Palbociclib] + CC(=O)Nc1cccc(-n2c(=O)n(C3CC3)c(=O)c3c(Nc4ccc(I)cc4F)n(C)c(=O)c(C)c32)c1 [Trametinib] (partner 0.02 µM)
Method in brief: as §1

Row | Cell Line | relative viability (Palbociclib + Olaparib; first compound 0.01 µM) | relative viability (Palbociclib + Olaparib; first compound 0.03162 µM) | relative viability (Palbociclib + Olaparib; first compound 0.1 µM) | relative viability (Palbociclib + Olaparib; first compound 0.3162 µM) | relative viability (Palbociclib + Olaparib; first compound 1 µM) | relative viability (Palbociclib + Vorinostat; first compound 0.01 µM) | relative viability (Palbociclib + Vorinostat; first compound 0.03162 µM) | relative viability (Palbociclib + Vorinostat; first compound 0.1 µM) | relative viability (Palbociclib + Vorinostat; first compound 0.3162 µM) | relative viability (Palbociclib + Vorinostat; first compound 1 µM) | relative viability (Palbociclib + Tozasertib; first compound 0.01 µM) | relative viability (Palbociclib + Tozasertib; first compound 0.03162 µM) | relative viability (Palbociclib + Tozasertib; first compound 0.1 µM) | relative viability (Palbociclib + Tozasertib; first compound 0.3162 µM) | relative viability (Palbociclib + Tozasertib; first compound 1 µM) | relative viability (Palbociclib + Trametinib; first compound 0.01 µM) | relative viability (Palbociclib + Trametinib; first compound 0.03162 µM) | relative viability (Palbociclib + Trametinib; first compound 0.1 µM) | relative viability (Palbociclib + Trametinib; first compound 0.3162 µM) | relative viability (Palbociclib + Trametinib; first compound 1 µM)
1 | NCI-H1734 | 0.616 | 0.596 | 0.566 | 0.494 | 0.407 | 0.731 | 0.459 | 0.619 | 0.649 | 0.48 | 0.267 | 0.253 | 0.29 | 0.231 | 0.277 | 0.617 | 0.6 | 0.581 | 0.56 | 0.481
2 | HCC-78 | 1.05 | 0.661 | 0.695 | 0.636 | 0.369 | 0.502 | 0.38 | 0.415 | 0.418 | 0.299 | 0.451 | 0.383 | 0.319 | 0.354 | 0.334 | 0.869 | 0.62 | 0.524 | 0.531 | 0.374
3 | EKVX | 0.915 |  | 0.647 | 0.608 | 0.438 | 0.702 | 0.509 | 0.625 | 0.549 | 0.483 | 0.366 | 0.396 | 0.341 | 0.398 | 0.311 | 0.3 |  | 0.247 | 0.251 | 0.244
4 | BEN | 1.01 | 0.992 | 0.615 | 0.945 | 0.594 | 0.568 | 0.542 | 0.509 | 0.58 | 0.517 | 0.563 | 0.429 | 0.541 | 0.608 | 0.697 | 1.05 | 0.949 | 0.553 | 0.873 | 0.598
5 | HARA | 0.673 | 0.596 | 0.524 | 0.852 | 0.344 | 0.446 |  | 0.384 | 0.608 | 0.511 | 0.108 |  | 0.0705 | 0.102 | 0.0769 | 0.654 | 0.545 | 0.763 | 0.627 | 0.338
6 | HCC-15 | 0.788 |  | 0.626 | 0.651 | 0.598 | 0.871 |  | 0.768 | 0.684 | 0.581 | 0.454 |  | 0.38 | 0.372 | 0.343 | 0.409 |  | 0.325 | 0.37 | 0.304
7 | SW 900 | 0.914 |  | 0.975 | 0.865 | 0.725 | 0.524 |  | 0.385 | 0.415 | 0.389 | 0.557 |  | 0.461 | 0.417 | 0.506 | 0.828 |  | 1.12 | 0.616 | 0.509
8 | NCI-H1975 | 0.859 | 0.762 | 0.737 | 0.623 | 0.61 | 0.712 | 0.649 | 0.597 | 0.579 | 0.469 | 0.733 | 0.664 | 0.577 | 0.694 | 0.592 | 0.402 | 0.372 | 0.309 | 0.353 | 0.236
9 | NCI-H2126 | 0.972 | 0.833 | 0.698 | 0.719 | 0.526 | 0.718 | 0.381 | 0.535 | 0.545 | 0.325 | 0.837 | 0.746 | 0.531 | 0.542 | 0.363 | 0.575 | 0.528 | 0.518 | 0.509 | 0.431
10 | NCI-H661 | 0.731 | 0.636 | 0.583 | 0.467 | 0.44 | 0.748 | 0.598 | 0.561 | 0.433 | 0.425 | 0.332 | 0.346 | 0.324 | 0.302 | 0.3 | 0.536 | 0.5 | 0.423 | 0.477 | 0.336
11 | LXF-289 | 1.1 | 1.08 | 0.951 | 0.969 | 0.865 | 0.77 | 0.268 | 0.66 | 0.782 | 0.672 | 0.175 | 0.2 | 0.19 | 0.233 | 0.248 | 0.662 | 0.633 | 0.632 | 0.619 | 0.605
12 | NCI-H1395 | 0.429 | 0.423 | 0.421 | 0.477 | 0.514 | 0.844 | 0.705 | 0.602 | 0.724 | 0.496 | 0.791 | 0.709 | 0.627 | 0.676 | 0.635 | 1.08 | 0.884 | 0.816 | 0.854 | 0.731
13 | NCI-H358 | 0.571 | 0.486 | 0.452 | 0.292 | 0.136 | 0.73 | 0.475 | 0.413 | 0.449 | 0.199 | 0.0961 | 0.087 | 0.096 | 0.0791 | 0.0679 | 0.124 | 0.133 | 0.106 | 0.12 | 0.106
14 | NCI-H1651 | 0.177 | 0.196 | 0.225 | 0.203 | 0.206 | 0.572 | 0.523 | 0.591 | 0.529 | 0.485 | 0.749 | 0.603 | 0.665 | 0.617 | 0.685 | 0.841 | 0.798 | 0.743 | 0.803 | 0.714
15 | NCI-H1993 | 1.14 | 0.907 | 0.945 | 0.846 | 0.703 | 0.8 | 0.539 | 0.625 | 0.644 | 0.65 | 0.612 | 0.572 | 0.575 | 0.507 | 0.509 | 0.564 | 0.612 | 0.418 | 0.332 | 0.514
16 | NCI-H1437 | 0.64 | 0.599 | 0.564 | 0.489 | 0.369 | 0.873 | 0.74 | 0.651 | 0.493 | 0.35 | 0.368 | 0.351 | 0.287 | 0.376 | 0.307 | 0.553 | 0.522 | 0.456 | 0.332 | 0.293
